Molecular target: Bile salt export pump (Homo sapiens, UniProt O95342)
Assay type: ADME

Q: Which IC50 does the source give for `Cc1oncc1C(=O)Nc1ccc(C(F)(F)F)cc1` [LEFLUNOMIDE] here?
A: Its IC50 is 110 µM.

Q: For `N#Cc1ccc(C(c2ccc(C#N)cc2)n2cncn2)cc1` [LETROZOLE], which IC50 is on record?
A: Its IC50 is 225 µM.

Q: With `Nc1nc2c(c(=O)[nH]1)N(C=O)C(CNc1ccc(C(=O)N[C@@H](CCC(=O)O)C(=O)O)cc1)CN2` (stereo partly drawn) [LEUCOVORIN] as the molecule, how does the IC50 read?
A: Its IC50 is > 1000 µM.

Q: `c1ccc([C@H]2CN3CCSC3=N2)cc1` [LEVAMISOLE] was tested. Which IC50 did it give?
A: The IC50 was > 1000 µM.

Q: `CC1(C)Oc2ccc(C#N)cc2[C@@H](N2CCCC2=O)[C@@H]1O` [LEVCROMAKALIM] was tested. Which IC50 did it give?
A: Its IC50 is 353 µM.

Q: `COc1ccc2c(c1)N(C[C@H](C)CN(C)C)c1ccccc1S2` [LEVOMEPROMAZINE] was tested. Which IC50 did it give?
A: Its IC50 is 127 µM.

Q: With `CN=C(N)NC(=O)Nc1c(C)cccc1C` [LIDAMIDINE] as the molecule, how does the IC50 read?
A: Its IC50 is > 1000 µM.

Q: `Cc1nc(C)c(C)nc1C` [LIGUSTRAZINE] was tested. Which IC50 did it give?
A: Its IC50 is > 1000 µM.

Q: How did the IC50 turn out when `Cc1cccc(C)c1CNc1cc(C(=O)NCCO)cn2c(C)c(C)nc12` [LINAPRAZAN] was run?
A: The IC50 was < 10 µM.

Q: `CC(=O)NC[C@H]1CN(c2ccc(N3CCOCC3)c(F)c2)C(=O)O1` [LINEZOLID] was tested. Which IC50 did it give?
A: The IC50 was > 1000 µM.

Q: Which IC50 does the source give for `O=C(O)CCCCC1CCSS1` (stereo not drawn) [LIPOIC ACID, ALPHA] here?
A: The IC50 was > 1000 µM.

Q: With `COc1c(OC)c(OC(C)=O)c2cc(Cl)ccc2c1OC(C)=O` [LONAPALENE] as the molecule, how does the IC50 read?
A: Its IC50 is 14.4 µM.

Q: How did the IC50 turn out when `CCCCc1nc(Cl)c(CO)n1Cc1ccc(-c2ccccc2-c2nn[nH]n2)cc1` [LOSARTAN] was run?
A: Its IC50 is < 10 µM.

Q: How did the IC50 turn out when `Cc1ccc(Cl)c(Nc2ccccc2C(=O)O)c1Cl` [MECLOFENAMIC ACID] was run?
A: The IC50 was 27.2 µM.

Q: How did the IC50 turn out when `CC(=O)O[C@]1(C(C)=O)CC[C@H]2[C@@H]3C=C(C)C4=CC(=O)CC[C@]4(C)[C@H]3CC[C@@]21C` [MEGESTROL ACETATE] was run?
A: The IC50 was < 10 µM.

Q: With `CC12CC3CC(C)(C1)CC(N)(C3)C2` [MEMANTINE] as the molecule, how does the IC50 read?
A: The IC50 was > 1000 µM.

Q: Which IC50 does the source give for `C[N+]1(C)CCCC(OC(=O)C(O)(c2ccccc2)c2ccccc2)C1` (stereo not drawn) [MEPENZOLATE BROMIDE] here?
A: Its IC50 is > 1000 µM.

Q: `Cc1ccccc1OCC(O)CO` (stereo not drawn) [MEPHENESIN] was tested. Which IC50 did it give?
A: Its IC50 is > 1000 µM.

Q: How did the IC50 turn out when `CCC1(c2ccccc2)NC(=O)N(C)C1=O` (stereo not drawn) [MEPHENYTOIN] was run?
A: The IC50 was > 1000 µM.

Q: Which IC50 does the source give for `Cc1cc2c(OCC(O)CNC(C)C)cccc2[nH]1` (stereo not drawn) [MEPINDOLOL] here?
A: The IC50 was 35.9 to 36 µM.

Q: `CCCNC(C)(C)COC(=O)c1ccccc1` [MEPRYLCAINE] was tested. Which IC50 did it give?
A: Its IC50 is > 1000 µM.

Q: For `C[C@H](N)[C@H](O)c1cccc(O)c1` [METARAMINOL], which IC50 is on record?
A: The IC50 was > 1000 µM.

Q: `CN1C[C@H](CNC(=O)OCc2ccccc2)C[C@@H]2c3cccc4c3c(cn4C)C[C@H]21` [METERGOLINE] was tested. Which IC50 did it give?
A: The IC50 was < 10 µM.

Q: Which IC50 does the source give for `COc1ccccc1OCC(O)COC(N)=O` (stereo not drawn) [METHOCARBAMOL] here?
A: Its IC50 is > 1000 µM.

Q: How did the IC50 turn out when `COc1ccc(OC)c(C(O)C(C)N)c1` (stereo not drawn) [METHOXAMINE] was run?
A: Its IC50 is > 1000 µM.

Q: How did the IC50 turn out when `C[C@H]1C[C@@H]2[C@H]([C@@H](O)C[C@@]3(C)[C@H]2CC[C@]3(O)C(=O)CO)[C@@]2(C)C=CC(=O)C=C12` [METHYLPREDNISOLONE] was run?
A: Its IC50 is 33 µM.

Q: `CC(CN(C)C)CN1c2ccccc2Sc2ccccc21` (stereo not drawn) [METHYLPROMAZINE] was tested. Which IC50 did it give?
A: The IC50 was 73.7 µM.

Q: Which IC50 does the source give for `Cc1cc(=O)[nH]c(=S)[nH]1` [METHYLTHIOURACIL] here?
A: Its IC50 is > 1000 µM.

Q: With `CC[C@@H](CO)NC(=O)[C@@H]1C=C2c3cccc4c3c(cn4C)C[C@H]2N(C)C1` [METHYSERGIDE] as the molecule, how does the IC50 read?
A: The IC50 was 33.1 µM.

Q: For `CC(=O)Nc1c(I)c(C(=O)N[C@H]2C(O)O[C@H](CO)[C@@H](O)[C@@H]2O)c(I)c(N(C)C(C)=O)c1I` (stereo partly drawn) [METRIZAMIDE], which IC50 is on record?
A: Its IC50 is > 1000 µM.

Q: Which IC50 does the source give for `CC(C)(C(=O)c1cccnc1)c1cccnc1` [METYRAPONE] here?
A: The IC50 was 229 µM.

Q: For `CN1CCN2c3ccccc3Cc3ccccc3C2C1` (stereo not drawn) [MIANSERIN], which IC50 is on record?
A: Its IC50 is 46.8 to 47 µM.

Q: For `Clc1ccc(COC(Cn2ccnc2)c2ccc(Cl)cc2Cl)c(Cl)c1` (stereo not drawn) [MICONAZOLE], which IC50 is on record?
A: The IC50 was < 10 µM.

Q: `CCCc1c2nc(C(=O)O)cc(NC)c2cc2c(=O)cc(C(=O)O)oc12` [MINOCROMIL] was tested. Which IC50 did it give?
A: Its IC50 is > 1000 µM.

Q: With `Clc1ccc(C(c2ccccc2Cl)C(Cl)Cl)cc1` (stereo not drawn) [MITOTANE] as the molecule, how does the IC50 read?
A: The IC50 was < 10 µM.

Q: `COc1c(N2C[C@@H]3CCCN[C@@H]3C2)c(F)cc2c(=O)c(C(=O)O)cn(C3CC3)c12` [MOXIFLOXACIN] was tested. Which IC50 did it give?
A: Its IC50 is > 1000 µM.

Q: Which IC50 does the source give for `CC(C)(C)NCC(O)COc1cccc2c1CC(O)C(O)C2` (stereo not drawn) [NADOLOL] here?
A: Its IC50 is > 1000 µM.

Q: `CCN(CC)CCOC(=O)C(Cc1cccc2ccccc12)CC1CCCO1` (stereo not drawn) [NAFRONYL] was tested. Which IC50 did it give?
A: The IC50 was < 11 µM.

Reference: ChEMBL document CHEMBL4017441, “Mitigating the inhibition of human bile salt export pump by drugs: opportunities provided by physicochemical property modulation, in silico modeling, and structural modification” (Drug Metab Dispos, 2012)
